Earlier results on 26 compounds are cited in patent US6451339B2, “Compositions and methods for improved delivery of hydrophobic agents” (Lipocine, Inc., priority 1999, dated 2002).

Bounds are passed on as bounds.

The conditions of this data set: value reported by the manufacturer of the commercial product, a rough average, or inventors' judgment; cited from earlier work.
Consider `CC(C)=CCC[C@@H](C)[C@H]1CC[C@@]2(C)C3=C(CC[C@]12C)[C@@]1(C)CC[C@H](O)C(C)(C)[C@@H]1CC3` [Ianosterol], for which the HLB was <10.
In the case of Propylene glycol dicaprylate/dicaprate, the HLB is given as <6.
Consider PEG 400-100O monostearate, for which the HLB is on record as >10.
PEG-24 cholesterol ether: the HLB is listed as >10.
For `CCCCCCCCCCCCOS(=O)(=O)[O-].[Na+]` [Sodium lauryl sulfate, Sodium lauryl sulfate (dodecyl)], the HLB is 40.
Take Phytosterol: the HLB is <10.
`CCCCCCCC(=O)OCC(C)OC(=O)CCCCCCC` (centres unmarked) [Propylene glycol dioctanoate]: the HLB was <6.
Consider PEG-30 soya sterol, for which the HLB is listed as >10.
In the case of `CCCCC/C=C\C/C=C\CCCCCCCC(=O)OCC` [Ethyl linoleate], the HLB is <10.
As to `CCCCC/C=C\C/C=C\CCCCCCCC(=O)OC(C)C` [Isopropyl linoleate], the HLB was <10.
For `CCCCCCCC(=O)OCC(C)OC(=O)CCCCCCC` (centres unmarked) [Propylene glycol dicaprylate], the HLB is reported as >6.
Consider PEG-5 soya sterol, for which the HLB is <10.
Regarding `CC[C@H](CC[C@@H](C)[C@H]1CC[C@H]2[C@@H]3CC=C4C[C@@H](O)CC[C@]4(C)[C@H]3CC[C@]12C)C(C)C` [sitosterol], the HLB is listed as <10.
PEG-10 soya sterol: the HLB was <10.
Turning to PEG-25 phyto sterol, the HLB was >10.
Take `CCCCCCCCCCCC(=O)OCC(C)OC(=O)CCCCCCCCCCC` (centres unmarked) [Propylene glycol dilaurate]: the HLB is reported as >6.
Consider Polyglyceryl polyricinoleate, for which the HLB is on record as 3-20.
As to `CCCCCCCCCCCCCCCCCC(=O)OCC(C)OC(=O)CCCCCCCCCCCCCCCCC` (centres unmarked) [Propylene glycol distearate], the HLB is >6.
For `CCCCCCCC/C=C\CCCCCCCC(=O)OCC(COC(=O)CCCCCCC/C=C\CCCCCCCC)(COC(=O)CCCCCCC/C=C\CCCCCCCC)COC(=O)CCCCCCC/C=C\CCCCCCCC` [Pentaerythrityl tetraoleate], the HLB was >10.
For the compound PEG-30 cholestanol, the HLB is listed as >10.
Regarding `CC(C)CCC[C@@H](C)[C@H]1CC[C@H]2[C@@H]3CC=C4C[C@@H](O)CC[C@]4(C)[C@H]3CC[C@]12C` [Cholesterol], the HLB is <10.
In the case of `CCCCCCCCCCCCCCCCCC(=O)OCC(CO)(CO)COC(=O)CCCCCCCCCCCCCCCCC` [Pentaerythrityl distearate], the HLB is recorded as >10.
`CCCCCCCCCCCCCC(=O)OC(C)C` [Isopropyl myristate]: the HLB is reported as <10.
For PEG-20 soya sterol, the HLB was <10.
`CCCCCCCCCC(=O)OCC(C)OC(=O)CCCCCCCCC` (centres unmarked) [Propylene glycol dicaprate]: the HLB is recorded as >6.
As for `CCCCCCCC/C=C\CCCCCCCC(=O)[O-].[Na+]` [Sodium oleate], the HLB was 18.
